In PMC6270149, “Bioactive Flavone-C-Glycosides of the African Medicinal Plant Biophytum umbraculum” (Molecules, 2013):
Read-outs that look alike come from different tables or passages of the source.

Legend:
DPPH radical scavenging = conditions: triplicates, mean ± SD; for IC50: isolated compounds dissolved in DMSO
Protocol: Pure substances and crude extracts (Soxhlet) were dissolved in DMSO, and the assay was carried out as reported previously. Quercetin (Sigma-Aldrich) was used as positive control.

xanthine oxidase (XO) = xanthine oxidase (XO) (Bos taurus, UniProt P80457); assay: Inhibition of xanthine oxidase (XO); format: biochemical; conditions: isolated compounds dissolved in DMSO; triplicates, mean ± SD
Protocol: (§1) Pure substances and crude extracts (Soxhlet) were dissolved in DMSO, and the assay was carried out as reported previously.

15-lipoxygenase (15-LO) = target: T1, 15-lipoxygenase (15-LO) (Glycine max, UniProt P08170); assay: Inhibition of 15-lipoxygenase (15-LO); format: biochemical; conditions: isolated compounds dissolved in DMSO, triplicates, mean ± SD
T1 sequence (P08170 1-839): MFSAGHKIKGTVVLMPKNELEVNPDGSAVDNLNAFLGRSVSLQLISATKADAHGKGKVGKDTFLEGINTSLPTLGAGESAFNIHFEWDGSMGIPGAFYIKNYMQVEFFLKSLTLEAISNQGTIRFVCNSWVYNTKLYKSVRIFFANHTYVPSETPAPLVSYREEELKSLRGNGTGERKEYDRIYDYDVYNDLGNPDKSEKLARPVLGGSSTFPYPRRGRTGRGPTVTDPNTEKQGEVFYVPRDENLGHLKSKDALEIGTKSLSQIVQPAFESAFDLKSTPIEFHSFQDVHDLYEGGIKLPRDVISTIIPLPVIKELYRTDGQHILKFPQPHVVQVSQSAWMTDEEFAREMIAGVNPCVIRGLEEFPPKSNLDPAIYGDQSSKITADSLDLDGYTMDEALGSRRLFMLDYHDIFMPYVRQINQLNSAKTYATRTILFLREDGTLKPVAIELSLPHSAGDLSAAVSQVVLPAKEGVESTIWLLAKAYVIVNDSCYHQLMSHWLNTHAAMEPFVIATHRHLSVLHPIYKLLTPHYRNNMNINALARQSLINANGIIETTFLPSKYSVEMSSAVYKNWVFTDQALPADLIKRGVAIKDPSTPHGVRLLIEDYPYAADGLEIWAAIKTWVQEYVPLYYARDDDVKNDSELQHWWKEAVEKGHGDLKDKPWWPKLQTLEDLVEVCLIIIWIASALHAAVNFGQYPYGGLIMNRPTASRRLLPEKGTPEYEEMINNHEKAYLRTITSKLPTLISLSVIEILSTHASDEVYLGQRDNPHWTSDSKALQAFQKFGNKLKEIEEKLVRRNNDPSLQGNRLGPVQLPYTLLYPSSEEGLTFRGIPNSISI
Protocol: as §1

[1] = read-out: 15-lipoxygenase (15-LO) inhibition IC50 ± SD

xanthine oxidase (XO), sequence (P80457 whole entry): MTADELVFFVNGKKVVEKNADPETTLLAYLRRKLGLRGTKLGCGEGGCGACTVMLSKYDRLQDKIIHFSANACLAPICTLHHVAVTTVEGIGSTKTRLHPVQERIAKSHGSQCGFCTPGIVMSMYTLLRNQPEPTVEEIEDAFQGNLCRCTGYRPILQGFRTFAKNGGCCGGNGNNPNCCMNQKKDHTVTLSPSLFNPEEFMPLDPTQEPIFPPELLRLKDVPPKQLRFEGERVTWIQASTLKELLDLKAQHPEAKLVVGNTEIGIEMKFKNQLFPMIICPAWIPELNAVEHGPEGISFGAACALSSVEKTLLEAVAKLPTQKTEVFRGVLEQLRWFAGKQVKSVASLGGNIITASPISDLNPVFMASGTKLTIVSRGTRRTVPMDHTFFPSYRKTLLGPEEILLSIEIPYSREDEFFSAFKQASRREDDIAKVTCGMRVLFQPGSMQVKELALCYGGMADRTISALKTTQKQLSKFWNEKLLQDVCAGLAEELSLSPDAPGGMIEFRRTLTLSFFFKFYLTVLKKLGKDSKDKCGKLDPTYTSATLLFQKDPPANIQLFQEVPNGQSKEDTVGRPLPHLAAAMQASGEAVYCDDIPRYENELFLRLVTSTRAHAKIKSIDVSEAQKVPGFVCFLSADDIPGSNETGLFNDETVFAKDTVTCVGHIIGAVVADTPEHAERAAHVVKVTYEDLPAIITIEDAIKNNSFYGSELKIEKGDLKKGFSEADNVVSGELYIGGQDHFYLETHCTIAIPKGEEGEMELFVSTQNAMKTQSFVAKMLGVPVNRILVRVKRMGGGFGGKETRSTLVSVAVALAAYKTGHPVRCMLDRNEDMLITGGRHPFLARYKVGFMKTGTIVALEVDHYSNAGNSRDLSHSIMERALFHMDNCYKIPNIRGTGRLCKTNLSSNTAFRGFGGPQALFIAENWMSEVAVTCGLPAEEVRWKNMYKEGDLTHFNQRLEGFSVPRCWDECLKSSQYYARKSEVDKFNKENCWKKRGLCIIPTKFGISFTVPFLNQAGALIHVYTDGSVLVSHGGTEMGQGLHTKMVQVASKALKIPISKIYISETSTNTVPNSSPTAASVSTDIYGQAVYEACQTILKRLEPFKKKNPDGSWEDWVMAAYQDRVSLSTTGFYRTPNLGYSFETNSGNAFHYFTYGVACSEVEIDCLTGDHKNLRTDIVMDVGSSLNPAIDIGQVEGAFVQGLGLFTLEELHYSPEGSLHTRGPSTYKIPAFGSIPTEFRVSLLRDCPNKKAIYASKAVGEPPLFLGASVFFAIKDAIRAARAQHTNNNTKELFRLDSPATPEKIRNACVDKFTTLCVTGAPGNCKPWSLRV

SMILES | IC50 (DPPH radical scavenging) | IC50 (xanthine oxidase (XO)) | IC50 (15-lipoxygenase (15-LO); 15-lipoxygenase (15-LO) inhibition IC50 ± SD) | IC50 (15-lipoxygenase (15-LO); [1]) | DPPH radical scavenging IC50 ± SD (DPPH radical scavenging; extracts (Soxhlet) dissolved in DMSO)
O=c1cc(-c2ccc(O)c(O)c2)oc2cc(O)c([C@@H]3O[C@H](CO)[C@@H](O)[C@H](O)[C@H]3O)c(O)c12 [Isoorientin (3), isoorientin] | 18.1 ± 1.1 µM | 117 ± 13.5 µM | 86.4 ± 0.5 µM | – | –
C[C@@H]1O[C@@H](O[C@H]2C(=O)[C@@H](O)[C@H](C)O[C@@H]2c2c(O)cc3oc(-c4ccc(O)cc4)cc(=O)c3c2O)[C@H](O)[C@H](O)[C@H]1O [Cassiaoccidentalin A (1), cassiaoccidentalin A] | > 167 µM | 150 ± 7.4 µM | – | 99.9 ± 2.5 µM | –
O=c1cc(-c2ccc(O)cc2)oc2cc(O)c([C@@H]3O[C@H](CO)[C@@H](O)[C@H](O)[C@H]3O)c(O)c12 [Isovitexin (2), isovitexin] | 96 ± 3.6 µM | > 167 µM | – | 107 ± 2.1 µM | –
O=c1c(O)c(-c2ccc(O)c(O)c2)oc2cc(O)cc(O)c12 [Quercetin, reference compound] | 13.7 ± 1.3 µM | – | – | – | 4.4 ± 0.4 µg/mL
